Experimental data as given in US20180244611A1, “Modulators of the Cystic Fibrosis Transmembrane Conductance Regulator Protein and Methods of Use” (AbbVie S.à.r.l., priority 2017, published 2018).

Experiments:
F508delCFTR [1] = target: T1, F508delCFTR (Homo sapiens, UniProt P13569, DEL508-508); assay: Cell Surface Expression-Horse Radish Peroxidase (CSE-HRP) assay, test compound with co-corrector; format: cell-based; details: with 2 μM co-corrector; for Maximum % activity (with co-corrector): maximum at any tested concentration, normalized to positive control;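 for Maximum % activity (with co-corrector): percent of 2 µM positive control corrector over DMSO; co-corrector is that same compound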
T1 construct: expressed in transfected cells; host or cells: CFBE41o- human lung-derived epithelial cells (CFBE41o-F508delCFTR-HRP), doxycycline-inducible
T1 sequence (P13569 with tags, fused parts or gaps DEL508-508): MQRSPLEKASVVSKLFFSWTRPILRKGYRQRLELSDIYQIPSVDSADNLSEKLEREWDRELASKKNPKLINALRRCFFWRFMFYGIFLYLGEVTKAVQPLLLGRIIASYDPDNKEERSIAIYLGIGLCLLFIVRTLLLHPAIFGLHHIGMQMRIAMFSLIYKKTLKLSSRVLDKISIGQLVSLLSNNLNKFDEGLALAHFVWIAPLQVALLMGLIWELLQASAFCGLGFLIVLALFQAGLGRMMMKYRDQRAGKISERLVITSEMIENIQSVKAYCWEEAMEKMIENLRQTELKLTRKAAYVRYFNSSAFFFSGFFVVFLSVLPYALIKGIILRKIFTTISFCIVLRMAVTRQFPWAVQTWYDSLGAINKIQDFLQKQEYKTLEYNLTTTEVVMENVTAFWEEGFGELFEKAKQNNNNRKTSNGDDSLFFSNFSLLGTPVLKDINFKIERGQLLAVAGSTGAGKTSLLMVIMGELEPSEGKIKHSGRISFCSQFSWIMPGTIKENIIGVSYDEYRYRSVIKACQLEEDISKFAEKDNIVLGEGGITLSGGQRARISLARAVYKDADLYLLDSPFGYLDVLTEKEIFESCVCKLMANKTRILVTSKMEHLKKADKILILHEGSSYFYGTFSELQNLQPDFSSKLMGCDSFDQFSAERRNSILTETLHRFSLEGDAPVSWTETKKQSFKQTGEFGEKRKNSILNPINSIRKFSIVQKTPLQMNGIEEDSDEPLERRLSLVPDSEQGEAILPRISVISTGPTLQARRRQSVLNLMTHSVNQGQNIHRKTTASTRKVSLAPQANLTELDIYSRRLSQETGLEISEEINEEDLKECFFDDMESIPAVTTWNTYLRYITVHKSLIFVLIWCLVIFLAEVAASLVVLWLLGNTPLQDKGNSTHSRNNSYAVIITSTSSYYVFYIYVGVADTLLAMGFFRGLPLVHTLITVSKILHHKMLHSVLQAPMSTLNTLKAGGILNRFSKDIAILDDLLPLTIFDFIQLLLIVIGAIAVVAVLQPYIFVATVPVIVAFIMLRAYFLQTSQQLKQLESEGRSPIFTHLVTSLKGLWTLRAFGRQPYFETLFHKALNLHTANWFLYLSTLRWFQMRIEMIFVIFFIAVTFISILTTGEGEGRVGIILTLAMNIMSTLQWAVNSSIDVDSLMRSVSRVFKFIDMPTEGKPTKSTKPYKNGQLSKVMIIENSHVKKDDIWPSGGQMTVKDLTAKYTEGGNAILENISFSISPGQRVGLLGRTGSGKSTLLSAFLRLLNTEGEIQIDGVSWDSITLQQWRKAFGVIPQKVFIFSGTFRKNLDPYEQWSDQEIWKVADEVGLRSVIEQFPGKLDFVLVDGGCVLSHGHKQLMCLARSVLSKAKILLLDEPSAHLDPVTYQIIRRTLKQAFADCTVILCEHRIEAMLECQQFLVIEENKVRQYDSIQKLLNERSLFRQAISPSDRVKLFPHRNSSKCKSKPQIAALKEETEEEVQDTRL
How it was run: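 CFBE41o- cells expressing F508delCFTR with HRP in the fourth exofacial loop, induced with 0.5 μg/mL doxycycline for 72 h, then treated 18-24 h at 33° C. with compound (8 points, top 20 μM, 3-fold) plus 2 μM co-corrector. Surface HRP read by luminol luminescence; activity normalised to positive control, EC50 from variable-slope sigmoidal fit.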

F508delCFTR [2] = target: T1, F508delCFTR; assay: Cell Surface Expression-Horse Radish Peroxidase (CSE-HRP) assay, test compound without co-corrector; format: cell-based; details: for Emax: maximum at any tested concentration, normalized to positive control, without co-corrector; for EC50: test compound without co-corrector;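 for Emax: percent of on-plate 2 µM positive control corrector response over DMSO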
How it was run: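 CFBE41o- cells expressing F508delCFTR with HRP in the fourth exofacial loop, induced with 0.5 μg/mL doxycycline for 72 h at 37° C, then exposed to compound alone for 18-24 h at 33° C, 8-point 3-fold series from 20 μM. Surface HRP read by luminol luminescence, normalized to positive corrector control versus DMSO; EC50 from variable-slope sigmoidal fit of three replicate plates.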

Maximum % activity (with co-corrector) (F508delCFTR [1])	EC50 (F508delCFTR [1]) [µM]	Emax (F508delCFTR [2]) [%]	EC50 (F508delCFTR [2]) [µM]	Structure (SMILES)
++ (≥150 and <350)	3 to 10	< 50	≥ 10	COc1cccc2c1CCC2C(=O)NS(=O)(=O)c1ccccc1F (centres unmarked) [II-38]
++ (≥150 and <350)	3 to 10	< 50	3 to 10	COc1cccc2c1CCC2C(=O)NS(=O)(=O)c1ccccc1Br (centres unmarked) [II-39]
++ (≥150 and <350)	3 to 10	50 to 150	3 to 10	Cc1ccccc1S(=O)(=O)NC(=O)C1CCc2c(OC(C)C)cccc21 (centres unmarked) [II-40]
+++ (≥350)	3 to 10	50 to 150	3 to 10	COc1ccc(Br)c2c1CCC2C(=O)NS(=O)(=O)c1ccccc1C (centres unmarked) [II-41]
++ (≥150 and <350)	3 to 10	50 to 150	3 to 10	COc1cc(-c2cccc3c2CCC3C(=O)NS(=O)(=O)c2ccccc2C)ccn1 (centres unmarked) [II-42]
++ (≥150 and <350)	3 to 10	50 to 150	3 to 10	COc1cccc2c1CCCC2C(=O)NS(=O)(=O)c1cccc2cccnc12 (centres unmarked) [II-43]
+++ (≥350)	3 to 10	50 to 150	3 to 10	COc1ccc2c(c1)CC[C@@]2(C)C(=O)NS(=O)(=O)c1cccc2ccccc12 [II-44]
+++ (≥350)	3 to 10	≥ 150	3 to 10	COc1ccc2c(c1)CC[C@]2(C)C(=O)NS(=O)(=O)c1cccc2ccccc12 [II-45]
+++ (≥350)	3 to 10	50 to 150	3 to 10	COc1cccc2c1CC[C@]2(C)C(=O)NS(=O)(=O)c1cccc2ccccc12 [II-46]
+++ (≥350)	3 to 10	50 to 150	3 to 10	COc1cccc2c1CC(C(=O)NS(=O)(=O)c1cccc3ccccc13)C2 (centres unmarked) [II-48]
+++ (≥350)	< 3	≥ 150	3 to 10	CC1(C(=O)NS(=O)(=O)c2cccc3ccccc23)CCc2ccc(OC(F)(F)F)cc21 (centres unmarked) [II-49]
++ (≥150 and <350)	3 to 10	< 50	3 to 10	O=C(NS(=O)(=O)c1cccc2ccccc12)C1CCCc2c(O)ccc(Br)c21 (centres unmarked) [II-50]
+++ (≥350)	3 to 10	50 to 150	3 to 10	COc1ccc2c(c1OC)CCCC2C(=O)NS(=O)(=O)c1cccc2ccccc12 (centres unmarked) [II-51]
+++ (≥350)	3 to 10	50 to 150	3 to 10	O=C(NS(=O)(=O)c1cccc2ccccc12)C1CCCc2c1ccc1c2OCCO1 (centres unmarked) [II-52]
+++ (≥350)	3 to 10	50 to 150	3 to 10	COc1cc2c(cc1OC)C(C(=O)NS(=O)(=O)c1cccc3ccccc13)CCC2 (centres unmarked) [II-53]
++ (≥150 and <350)	< 3	< 50	< 3	CCC1(C(=O)NS(=O)(=O)c2ccccc2Cl)CCc2c(Cl)cccc21 (centres unmarked) [II-54]
+ (<150)	≥ 10	< 50	≥ 10	CCC1(C(=O)NS(=O)(=O)c2ccccc2OC)CCc2c(Cl)cccc21 (centres unmarked) [II-55]
++ (≥150 and <350)	< 3	< 50	< 3	CCC1(C(=O)NS(=O)(=O)c2cc(C)ccc2C(C)C)CCc2c(Cl)cccc21 (centres unmarked) [II-56]

Maximum % activity (with co-corrector) (F508delCFTR [1])	EC50 (F508delCFTR [1]) [µM]	Emax (F508delCFTR [2]) [%]	EC50 (F508delCFTR [2]) [µM]	Structure (SMILES)
++ (≥150 and <350)	< 3	< 50	< 3	CCC1(C(=O)NS(=O)(=O)c2cccc(Cl)c2COC)CCc2c(Cl)cccc21 (centres unmarked) [II-57]
++ (≥150 and <350)	< 3	< 50	< 3	CCC1(C(=O)NS(=O)(=O)c2ccccc2F)CCc2c(Cl)cccc21 (centres unmarked) [II-58]
++ (≥150 and <350)	< 3	< 50	< 3	CCC1(C(=O)NS(=O)(=O)c2ccccc2Oc2ccccc2)CCc2c(Cl)cccc21 (centres unmarked) [II-59]
+ (<150)	≥ 10	< 50	≥ 10	CCC1(C(=O)NS(=O)(=O)c2ccccc2OC(F)(F)F)CCc2c(Cl)cccc21 (centres unmarked) [II-60]
+ (<150)	≥ 10	< 50	≥ 10	CCC1(C(=O)NS(=O)(=O)c2ccccc2OC(F)F)CCc2c(Cl)cccc21 (centres unmarked) [II-61]
+ (<150)	≥ 10	< 50	≥ 10	CCC1(C(=O)NS(=O)(=O)c2cc(C)ccc2C)CCc2c(Cl)cccc21 (centres unmarked) [II-62]
++ (≥150 and <350)	< 3	< 50	< 3	CCC1(C(=O)NS(=O)(=O)c2ccccc2OCCOC)CCc2c(Cl)cccc21 (centres unmarked) [II-63]
++ (≥150 and <350)	< 3	< 50	< 3	CCC1(C(=O)NS(=O)(=O)c2ccccc2-c2ccccc2)CCc2c(Cl)cccc21 (centres unmarked) [II-64]
++ (≥150 and <350)	3 to 10	< 50	3 to 10	CCC1(C(=O)NS(=O)(=O)c2ccc3ccccc3c2)CCc2c(Cl)cccc21 (centres unmarked) [II-65]
++ (≥150 and <350)	< 3	50 to 150	< 3	CCC1(C(=O)NS(=O)(=O)c2ccccc2)CCc2c(Cl)cccc21 (centres unmarked) [II-66]
+ (<150)	≥ 10	< 50	≥ 10	CCC1(C(=O)NS(=O)(=O)c2cccc3nsnc23)CCc2c(Cl)cccc21 (centres unmarked) [II-67]
++ (≥150 and <350)	< 3	< 50	3 to 10	O=C(NS(=O)(=O)c1cccc2ccccc12)C1CCc2ccccc21 (centres unmarked) [II-68]
+++ (≥350)	< 3	50 to 150	< 3	O=C(NS(=O)(=O)c1cccc2ccccc12)C1(CC2CCOC2)CCc2c(Cl)cccc21 (centres unmarked) [II-69]
++ (≥150 and <350)	< 3	50 to 150	< 3	O=C(NS(=O)(=O)c1cccc2ccccc12)C1(CCn2cccn2)CCc2c(Cl)cccc21 (centres unmarked) [II-70]
++ (≥150 and <350)	< 3	50 to 150	< 3	COc1cc(CC2(C(=O)NS(=O)(=O)c3cccc4ccccc34)CCc3c(Cl)cccc32)ccn1 (centres unmarked) [II-72]
+ (<150)	≥ 10	< 50	≥ 10	CCC1(C(=O)NS(=O)(=O)c2cccc3c2OCCO3)CCc2c(Cl)cccc21 (centres unmarked) [II-74]
+++ (≥350)	< 3	≥ 150	3 to 10	O=C(NS(=O)(=O)c1cccc2ccccc12)C1CCc2c(Br)cccc21 (centres unmarked) [II-75]
